Results taken from the Kinase Knowledgebase extract (Sharma et al. 2016).

What follows are compounds tested against MAPK14 (human) (UniProt Q16539) (assay: Assessment of MAPK14 Kinase Activity).
MAPK14 (human), sequence (Q16539 whole entry, looked up): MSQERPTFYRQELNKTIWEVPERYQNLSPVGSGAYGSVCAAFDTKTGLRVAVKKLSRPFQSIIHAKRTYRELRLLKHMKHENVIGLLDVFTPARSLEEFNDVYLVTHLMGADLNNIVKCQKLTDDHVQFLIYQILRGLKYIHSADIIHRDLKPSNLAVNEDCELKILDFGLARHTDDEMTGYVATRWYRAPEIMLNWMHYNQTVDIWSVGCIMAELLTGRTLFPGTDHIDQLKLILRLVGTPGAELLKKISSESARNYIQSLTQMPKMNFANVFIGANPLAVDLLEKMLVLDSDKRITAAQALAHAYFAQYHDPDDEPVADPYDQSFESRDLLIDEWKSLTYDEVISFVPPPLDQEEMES

Structure (SMILES) | IC50 [nM]
Cc1ccc(NC(=O)Nc2sc3c(c2C(=O)N2CCN(C)C(=O)C2(C)C)CCOC3)cc1-c1ccc(CN2CCOCC2)nc1 | 100 to 1000
Cc1ccc(NC(=O)Nc2sc(C(C)(C)C)cc2C(=O)N2CCN(C)C(=O)C2(C)C)cc1-c1ccc(C[N+]2([O-])CCOCC2)[n+]([O-])c1 | 100 to 1000
Cc1ccc(NC(=O)Nc2sc(C(C)(C)C)cc2C(=O)N2CCN(C)C(=O)C2(C)C)cc1-c1ccc(CN2CCOCC2)nc1 | < 100
CC(C)(C)c1cc(C(=O)N2CCNC(=O)C2(C)C)c(NC(=O)Nc2cccc(-c3ccc(OCCN4CCOCC4)nc3)c2)s1 | < 100
Cc1ccc(NC(=O)Nc2cn(C(C)(C)C)nc2C(=O)N2CCN(C)C(=O)C2(C)C)cc1-c1ccc(C(C)C)nc1 | < 100
Cc1ccc(NC(=O)Nc2sc(C(C)(C)C)cc2C(=O)N2CCNC(=O)C2(C)C)cc1-c1ccc(N2CCN(C)CC2)cn1 | < 100
COc1ccc(-c2cc(NC(=O)Nc3sc(C(C)(C)C)cc3C(=O)N3CCNC(=O)C3(C)C)ccc2C)cn1 | < 100
Cc1ccc(NC(=O)Nc2sc(C(C)(C)C)cc2C(=O)N2CCNC(=O)C2(C)C)cc1-c1ccc(CN2CCOCC2)nc1 | < 100
Cc1ccc(NC(=O)Nc2sc(C(C)(C)C)cc2C(=O)N2CCNC(=O)C2(C)C)cc1C#CCOCCN1CCOCC1 | < 100
Cc1ccc(NC(=O)Nc2sc(C(C)(C)C)cc2C(=O)N2CCNC(=O)C2(C)C)cc1-c1ccc(OCCN(C)C)nc1 | < 100
C#Cc1ccc(-c2cc(NC(=O)Nc3sc(C(C)(C)C)cc3C(=O)N3CCNC(=O)C3(C)C)ccc2C)cn1 | < 100
Cc1ccc(NC(=O)Nc2sc(C(C)(C)C)cc2C(=O)N2CCNC(=O)C2(C)C)cc1C#Cc1ccccn1 | < 100
CCc1ccc(-c2cc(NC(=O)Nc3cn(C4(C)CCCC4)nc3C(=O)N3CCNC(=O)C3(C)C)ccc2C)cn1 | < 100
COc1ccc(-c2ccc(C)c(NC(=O)Nc3sc(C(C)(C)C)cc3C(=O)N3CCNC(=O)C3(C)C)c2)cn1 | < 100
Cc1ncc(NC(=O)Nc2sc(C(C)(C)C)cc2C(=O)N2CCN(C)C(=O)C2(C)C)cc1C#CC1CC1 | < 100
Cc1ccc(NC(=O)Nc2sc(C(C)(C)C)cc2C(=O)N2CCNC(=O)C2(C)C)cc1-c1cnc(N2CCOCC2)nc1 | < 100
Cc1ccc(NC(=O)Nc2cn(C(C)(C)C)nc2C(=O)N2CCN(C3CCN(C)C3)C(=O)C2(C)C)cc1-c1cccnc1 (stereo not given) | 100 to 1000
Cc1ccc(NC(=O)Nc2sc(C(C)(C)C)cc2C(=O)N2CCNC(=O)C2(C)C)cc1-c1ccc(NCC(O)CO)nc1 (stereo not given) | < 100
Cc1ccc(NC(=O)Nc2sc(C(C)(C)C)cc2C(=O)N2CCNC(=O)C2(C)C)cc1-c1ccc(F)nc1 | < 100
COCCNC(=O)c1ccc(-c2cc(NC(=O)Nc3sc(C(C)(C)C)cc3C(=O)N3CCN(C)C(=O)C3(C)C)ccc2C)cn1 | < 100
Cc1ccc(NC(=O)Nc2sc(C(C)(C)C)cc2C(=O)N2CCN(C)C(=O)C2(C)C)cc1-c1ccc(CN2CCN(C)CC2)nc1 | < 100
Cc1ccc(NC(=O)Nc2cn(C(C)(C)C)nc2C(=O)N2CCNC(=O)C2(C)C)cc1-c1ccc(CN2CCOCC2)nc1 | < 100
Cc1ccc(NC(=O)Nc2sc(C(C)(C)C)cc2C(=O)N2CCNC(=O)C2(C)C)cc1-c1ccc(OC2CCOCC2)nc1 | < 100
CCNC(=O)c1ccc(-c2cc(NC(=O)Nc3sc(C(C)(C)C)nc3C(=O)N3CCN(C)C(=O)C3(C)C)ccc2C)cn1 | < 100
Cc1ccc(NC(=O)Nc2sc(C(C)(C)C)cc2C(=O)N2CCNC(=O)C2(C)C)cc1N1C(=O)CN(C)C1=O | < 100

Structure (SMILES) | IC50 [nM]
Cc1ccc(NC(=O)Nc2sc(C(C)(C)C)cc2C(=O)N2CCN(C)C(=O)C2(C)C)cc1-c1ccc(CN2CCOCC2)cn1 | < 100
COc1ccc(-c2cc(NC(=O)Nc3sc(C(C)(C)C)cc3C(=O)N3CCNC(=O)C3(C)C)cc(F)c2C)cn1 | < 100
Cc1ccc(NC(=O)Nc2sc(C(C)(C)C)cc2C(=O)N2CCNC(=O)CC2)cc1-c1cnc(N2CCOCC2)nc1 | < 100
CCNC(=O)c1ccc(-c2cc(NC(=O)Nc3cc(C(C)(C)C)oc3C(=O)N3CCN(C)C(=O)C3(C)C)ccc2C)cn1 | < 100
Cc1ccc(NC(=O)Nc2sc(C(C)(C)C)cc2C(=O)N2CCNC(=O)C2(C)C)cc1-c1ccc(C(=O)N(C)C)nc1 | < 100
Cc1ccc(NC(=O)Nc2cc(C(C)(C)C)oc2C(=O)N2CCNC(=O)C2(C)C)cc1-c1ccc(OCCN(C)C)nc1 | < 100
Cc1ccc(NC(=O)Nc2cc(C(C)(C)C)sc2C(=O)N2CCN(C)C(=O)C2(C)C)cc1-c1ccc(N2CCOCC2)nc1 | < 100
CC(C)(C)c1cc(C(=O)N2CCNC(=O)C2(C)C)c(NC(=O)Nc2cccc(-c3ccncc3)c2)s1 | < 100
COc1ccc(-c2cc(NC(=O)Nc3cc(C(C)(C)C)sc3C(=O)N3CCN(C)C(=O)C3(C)C)cc(F)c2C)cn1 | < 100
CCc1ccc(-c2cc(NC(=O)Nc3cn(C(C)(C)C)nc3C(=O)N3CCN(C)C(=O)C3(C)C)cc(F)c2C)cn1 | < 100
Cc1ccc(NC(=O)Nc2sc(C(C)(C)C)cc2C(=O)N2CCN(C)C(=O)C2(C)C)cc1-c1ccc(NS(C)(=O)=O)nc1 | < 100
CN(C)CCCOc1ccc(-c2cccc(NC(=O)Nc3sc(C(C)(C)C)cc3C(=O)N3CCNC(=O)C3(C)C)c2)cn1 | < 100
Cc1ccc(NC(=O)Nc2sc(C(C)(C)C)cc2C(=O)N2CCNC(=O)C2(C)C)cc1-c1ccc(OCCN2CCCCC2)nc1 | < 100
COc1ccc(-c2cc(NC(=O)Nc3cc(C(C)(C)C)sc3C(=O)N3CCNC(=O)C3(C)C)ccc2C)cn1 | < 100
CC(C)(C)c1cc(C(=O)N2CCNC(=O)C2(C)C)c(NC(=O)Nc2cccc(-c3cccnc3)c2)s1 | < 100
Cc1ccc(NC(=O)Nc2sc(C(C)(C)C)cc2C(=O)N2CCN(C)C(=O)C2(C)C)cc1-c1ccc(C[N+]2([O-])CCOCC2)nc1 | < 100
CCc1ccc(-c2cc(NC(=O)Nc3sc(C(C)(C)C)cc3C(=O)N3CCNC(=O)C3(C)C)ccc2C)cn1 | < 100
CC(=O)N1CCN(C(=O)c2cc(C(C)(C)C)sc2NC(=O)Nc2ccc(C)c(-c3cccnc3)c2)CC1 | < 100
Cc1ccc(NC(=O)Nc2sc(C(C)(C)C)cc2C(=O)N2CCNC(=O)C2(C)C)cc1-c1ccc(N2CCN(C)CC2)nc1 | < 100
Cc1ccc(-c2cc(NC(=O)Nc3sc(C(C)(C)C)cc3C(=O)N3CCN(C)C(=O)C3(C)C)ccc2C)cn1 | < 100
Cc1cc(NC(=O)Nc2cc(C(C)(C)C)sc2C(=O)N2CCNC(=O)C2(C)C)cc(-c2ccc(N3CCOCC3)cn2)c1 | < 100
CCN1CCN(C(=O)c2sc(C(C)(C)C)cc2NC(=O)Nc2ccc(C)c(-c3ccc(CN4CCOCC4)nc3)c2)C(C)(C)C1=O | < 100
Cc1ccc(NC(=O)Nc2sc(C(C)(C)C)cc2C(=O)N2CCNC(=O)C2(C)C)cc1-c1ccc(N2CCCCC2)nc1 | < 100
Cc1ccc(NC(=O)Nc2cn(C(C)(C)C)nc2C(=O)N2CCN(C)C(=O)C2(C)C)cc1-c1ccc(CN2CCOCC2)cn1 | < 100

Further lines, results first:

IC50 [nM] | Structure (SMILES)
< 100 | C#Cc1cc(NC(=O)Nc2sc(C(C)(C)C)cc2C(=O)N2CCNC(=O)C2(C)C)ccc1C
< 100 | Cc1ccc(NC(=O)Nc2sc(C(C)(C)C)cc2C(=O)N2CCNC(=O)C2(C)C)cc1-c1c(C)noc1C
< 100 | Cc1ccc(NC(=O)Nc2cc(C(C)(C)C)sc2C(=O)N2CCNC(=O)C2(C)C)cc1-c1ccc(N2CCOCC2)cn1
< 100 | CCNC(=O)c1ccc(-c2cc(NC(=O)Nc3cn(C(C)(C)C)nc3C(=O)N3CCN(C)C(=O)C3(C)C)ccc2C)cn1
< 100 | CCc1ccc(-c2cc(NC(=O)Nc3cc(C(C)(C)C)sc3C(=O)N3CCN(C)C(=O)C3(C)C)cc(F)c2C)cn1
< 100 | Cc1c(NC(=O)Nc2sc(C(C)(C)C)cc2C(=O)N2CCNC(=O)C2(C)C)cccc1-c1ccc(N2CCOCC2)nc1
< 100 | Cc1ccc(NC(=O)Nc2sc(C(C)(C)C)cc2C(=O)N2CCNS(=O)(=O)CC2)cc1-c1ccc(CN2CCOCC2)nc1
< 100 | Cc1ccc(NC(=O)Nc2sc(C(C)(C)C)cc2C(=O)N2CCNC(=O)C2(C)C)cc1-c1ccc(OCCN2CCNCC2)nc1
< 100 | Cc1ncc(NC(=O)Nc2sc(C(C)(C)C)cc2C(=O)N2CCNC(=O)C2(C)C)cc1-c1ccc(N2CCOCC2)nc1
< 100 | CCc1ccc(-c2cc(NC(=O)Nc3sc(C(C)(C)C)cc3C(=O)N3CCN(C)C(=O)C3(C)C)ccc2C)cn1
< 100 | CCOc1ccc(-c2cc(NC(=O)Nc3sc(C(C)(C)C)cc3C(=O)N3CCN(C)C(=O)C3(C)C)ccc2C)cn1
< 100 | COc1ccc(-c2cc(NC(=O)Nc3sc(C(C)(C)C)cc3C(=O)N3CCNC(=O)C3(C)C)c(F)cc2C)cn1
< 100 | Cc1ccc(NC(=O)Nc2sc(C(C)(C)C)cc2C(=O)N2CCNC(=O)C2(C)C)cc1-c1ccncc1
< 100 | Cc1ccc(-c2ccc(N3CCOCC3)cn2)cc1NC(=O)Nc1cc(C(C)(C)C)sc1C(=O)N1CCNC(=O)C1(C)C
< 100 | CCNC(=O)c1ccc(-c2cc(NC(=O)Nc3cn(C(C)(C)C)nc3C(=O)N3CCNC(=O)C3(C)C)ccc2C)cn1
< 100 | Cc1ccc(NC(=O)Nc2sc(C(C)(C)C)cc2C(=O)N2CCNC(=O)CC2)cc1-c1cccnc1
< 100 | Cc1ccc(NC(=O)Nc2sc(C(C)(C)C)cc2C(=O)N2CCN(C)C(=O)C2(C)C)cc1-c1ccc(-n2cccn2)nc1
< 100 | Cc1ccc(NC(=O)Nc2cn(C(C)(C)C)nc2C(=O)N2CCNC(=O)C2(C)C)cc1-c1ccc(N2CCOCC2)nc1
< 100 | Cc1ccc(NC(=O)Nc2sc(C(C)(C)C)cc2C(=O)N2CCNC(=O)C2(C)C)cc1C#CCN1CCN(C)CC1
< 100 | Cc1ccc(NC(=O)Nc2cn(C(C)(C)C)nc2C(=O)N2CCN(C)C(=O)C2(C)C)cc1-c1ccc(CN2CCOCC2)nc1
< 100 | Cc1ccc(NC(=O)Nc2cn(C(C)(C)C)nc2C(=O)N2CCN(C)C(=O)C2(C)C)cc1-c1ccc(N2CCOCC2)cn1
< 100 | Cc1ccc(NC(=O)Nc2cn(C(C)(C)C)nc2C(=O)N2CCNC(=O)C2(C)C)cc1-c1ccc(C(C)C)nc1
< 100 | COc1ccc(-c2cc(C)cc(NC(=O)Nc3sc(C(C)(C)C)cc3C(=O)N3CCNC(=O)C3(C)C)c2)cn1
< 100 | Cc1ccc(NC(=O)Nc2sc(C(C)(C)C)nc2C(=O)N2CCN(C)C(=O)C2(C)C)cc1-c1ccc(CN2CCOCC2)cn1
< 100 | Cc1ccc(NC(=O)Nc2cc(C(C)(C)C)sc2C(=O)N2CCNC(=O)C2(C)C)cc1-c1ccc(N2CCOCC2)nc1
< 100 | CCc1ccc(-c2cc(NC(=O)Nc3cn(C(C)(C)C)nc3C(=O)N3CCNC(=O)C3(C)C)ccc2C)cn1
